What all share (assay): NCI tumour cell line growth inhibition, 48 h
Assay [1] has as its system 786-0 renal.
Assay [2] concerns A498 renal.
Assay [3] has as its system HCT-15 colon.
For assay [4], the system named is IGROV1 ovarian.
Assay [5] has as its system MDA-MB-231 breast.
Assay [6] has as its system OVCAR-4 ovarian.
Assay [7] concerns OVCAR-8 ovarian.
The subject of assay [8] is RXF 393 renal.
The test system of assay [9] is SK-MEL-28 melanoma.
Assay [10] concerns TK-10 renal.

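Where inhibition never reached the appropriate level, the endpoint shown equals the highest concentration tested. Otherwise, values were interpolated linearly from a five-concentration, 48-hour dose response in 96-well plates. GI50 = concentration required for 50% inhibition of growth. Definition used: TGI = concentration required for complete inhibition of growth.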

For `C=C(CN1C(=O)[C@H]2CCCN2C(=O)c2ccccc21)c1ccc(C(=O)O)cc1`, the GI50 in [1] is > 100000 nM; in assay [2], > 100 µM; in [3], > 100000 nM; in assay [4] it was > 100 µM; in assay [5], > 100000 nM; in assay [6], > 100 µM. The GI50 is > 100 µM in assay [7], > 100 µM in assay [8], > 100000 nM in assay [9] and > 100 µM in [10]. In addition, the TGI in assay [1], in assay [2], in [3], in assay [4], in assay [5] and in assay [6] was > 100 µM in each case. Besides, the TGI in assay [7], in assay [8], in assay [9] and in assay [10] was > 100 µM throughout.

As to `O=C1/C(=C/c2ccccc2)CN(C(=O)c2cccnc2)C/C1=C\c1ccccc1`, the GI50 is 2070 nM in assay [1]; 2.19 µM in [2]; 331 nM in [3]; 2.85 µM in [4]; 1920 nM in assay [5]; 3.3 µM in assay [6]. Besides, the GI50 is 2.08 µM in [7], 1.72 µM in [8], 2390 nM in assay [9] and 3.57 µM in [10]. The TGI in assay [1] was found to be 4.57 µM; in [2] it was 5.42 µM; in assay [3], 1.38 µM; in assay [4], 9.74 µM; in assay [5], 4.83 µM; in [6], 13.8 µM. Also, the TGI worked out at 11.8 µM in assay [7], 3.3 µM in [8], 6.37 µM in assay [9] and 13.4 µM in assay [10].

Consider `Cc1cc2nc3c4cc(N)ccc4n(CCN(C)C)c3nc2cc1C`, for which the GI50 in assay [1] was 1110 nM; in [2], 0.763 µM; in assay [3] it was 499 nM; in assay [4], 0.5 µM; in assay [5] it was 1120 nM; in assay [6] it was 1.79 µM. Further, the GI50 is 0.584 µM in assay [7], 0.912 µM in [8], 2080 nM in assay [9] and 1.99 µM in assay [10]. Also, the TGI in [1] came to 12.6 µM; in assay [2], 2.32 µM; in assay [3], 10.2 µM; in assay [4], 4.62 µM; in assay [5], 7.61 µM; in assay [6] it was 9.64 µM. Besides, the TGI in assay [7] was 12.8 µM; in assay [8] it was 2.72 µM; in assay [9] it was 5.77 µM; in assay [10], 7.54 µM.

In the case of `N[C@@H]1CCCC[C@H]1N.O=C([O-])C(=O)[O-].[Pt+4]`, the GI50 was 752 nM in assay [1]; 4.85 µM in assay [2]; 646 nM in assay [3]; 1.85 µM in assay [4]; > 100000 nM in [5]; 4.09 µM in [6]. For the same compound, the GI50 was 6 µM in [7], 8.13 µM in assay [8], 2630 nM in assay [9] and 21.2 µM in assay [10]. Further, the TGI in assay [1] was 42.9 µM; in assay [2], 32.7 µM; in [3], > 64.9 µM; in assay [4], 35.9 µM; in [5] it was > 100 µM; in [6], 83.8 µM. Further, the TGI is > 100 µM in assay [7], > 39.8 µM in assay [8], 24.2 µM in [9] and 74 µM in assay [10].

Regarding `O=C(Nc1cccc(Cl)c1)c1ccc(NC2=C(Cl)C(=O)N(Cc3ccccc3)C2=O)cc1`, the GI50 is 8610 nM in [1]; 34.4 µM in assay [2]; 1980 nM in assay [3]; 9.95 µM in assay [4]; 8080 nM in [5]; 19.4 µM in assay [6]. Moreover, the GI50 was 11.5 µM in assay [7], 9.55 µM in [8], 14400 nM in [9] and 16.4 µM in [10]. Further, the TGI in assay [1] was 19.7 µM; in assay [2], 96.2 µM; in assay [3], 4.76 µM; in [4] it was > 62.6 µM; in assay [5] it was 31.9 µM; in assay [6] it was > 61.7 µM. Moreover, the TGI in [7] was 27.3 µM; in [8], 24.7 µM; in assay [9], 31.7 µM; in assay [10] it was 49.5 µM.

Turning to `C/C(=N/Nc1nc2ccccc2n1C)c1ccccn1`, the GI50 in assay [1] was 63.8 nM; in [2], 0.123 µM; in assay [3], 17.1 nM; in assay [4], 0.0327 µM; in [5], 56.1 nM; in assay [6], 0.0292 µM. The GI50 is 0.118 µM in [7], 0.169 µM in assay [8], 256 nM in [9] and 0.44 µM in assay [10]. Also, the TGI turned out to be 10.6 µM in assay [1]; 0.81 µM in assay [2]; 27.9 µM in [3]; 12.5 µM in [4]; 15.3 µM in assay [5]; 11.8 µM in assay [6]. Further, the TGI stood at 16.2 µM in [7], 3.24 µM in assay [8], 29.1 µM in assay [9] and 32.6 µM in assay [10].

As to `O=c1ccn(C2OC(CO/N=C/c3ccc(O)c(O)c3O)C(O)C2O)c(=O)[nH]1` (stereo not given), the GI50 in [1] was > 100000 nM; in assay [2], 15.4 µM; in [3], 20500 nM; in assay [4], 19.4 µM; in [5], 30000 nM; in assay [6], 18.9 µM. The GI50 was 22.3 µM in [7], 23 µM in [8], > 100000 nM in assay [9] and > 100 µM in assay [10]. Also, the TGI in assay [1] is > 100 µM; in assay [2], 39.2 µM; in assay [3], 50.4 µM; in assay [4], 38.5 µM; in [5], > 100 µM; in assay [6], 37.8 µM. Also, the TGI in [7] is 56 µM; in assay [8] it was 73.9 µM; in assay [9] it was > 100 µM; in [10], > 100 µM.

`Ic1ccccc1-c1ccccc1`: the GI50 in assay [1] is > 100000 nM; in [2], 65.1 µM; in [3], > 100000 nM; in assay [4], > 100 µM; in assay [5] it was > 100000 nM; in [6], > 100 µM. Moreover, the GI50 is > 100 µM in assay [7], 89.1 µM in assay [8], > 100000 nM in assay [9] and > 100 µM in assay [10]. For the same compound, the TGI in assay [1], in [2], in [3], in assay [4], in assay [5] and in assay [6] was > 100 µM in each case. In addition, the TGI in [7], in assay [8], in assay [9] and in assay [10] was > 100 µM in each case.

Turning to `NC(N)=N/N=C\c1cccc(OCc2ccccc2)c1`, the GI50 is 3540 nM in assay [1]; 11.4 µM in [2]; 3290 nM in [3]; 6.07 µM in [4]; 2370 nM in assay [5]; 5.93 µM in assay [6]. Further, the GI50 in [7] is 6.58 µM; in [8], 2.54 µM; in assay [9], 1660 nM; in [10], 12.6 µM. Besides, the TGI in assay [1] amounted to 12.6 µM; in assay [2] it was 23.5 µM; in assay [3], 12.9 µM; in assay [4], 23.8 µM; in [5] it was 6.11 µM; in assay [6], 27 µM. Further, the TGI is 38.8 µM in assay [7], 6.64 µM in assay [8], 3.41 µM in assay [9] and 39.1 µM in assay [10].

The values are drawn from PubChem BioAssay (NCI).
